Measurements as given in patent US10653676B2 (Dana-Farber Cancer Institute, Inc., priority 2010, dated 2020).

Columns and labels:
HeLa cells [1] = assay: sensitization of HeLa cells to mitomycin C, cell survival by redox dye; type: cell-based, human; conditions: 20 micromolar compound; MMC 0, 200, or 500 nM; FIG. 4
Description: HeLa cells were pretreated for six hours with selected concentrations (0, 200, or 500 nM) of mitomycin C (MMC), washed, then exposed to selected concentrations (0, 10, or 20 μM) of the compound of Formula IV (527) for eight hours. Cell survival was measured by redox dye.

USP5 = target: T1, USP5 (Homo sapiens, UniProt P45974); assay: ubiquitin-AMC assay with USP5; type: biochemical
T1 construct: purchased Boston Biochem
T1 sequence (P45974 1-858): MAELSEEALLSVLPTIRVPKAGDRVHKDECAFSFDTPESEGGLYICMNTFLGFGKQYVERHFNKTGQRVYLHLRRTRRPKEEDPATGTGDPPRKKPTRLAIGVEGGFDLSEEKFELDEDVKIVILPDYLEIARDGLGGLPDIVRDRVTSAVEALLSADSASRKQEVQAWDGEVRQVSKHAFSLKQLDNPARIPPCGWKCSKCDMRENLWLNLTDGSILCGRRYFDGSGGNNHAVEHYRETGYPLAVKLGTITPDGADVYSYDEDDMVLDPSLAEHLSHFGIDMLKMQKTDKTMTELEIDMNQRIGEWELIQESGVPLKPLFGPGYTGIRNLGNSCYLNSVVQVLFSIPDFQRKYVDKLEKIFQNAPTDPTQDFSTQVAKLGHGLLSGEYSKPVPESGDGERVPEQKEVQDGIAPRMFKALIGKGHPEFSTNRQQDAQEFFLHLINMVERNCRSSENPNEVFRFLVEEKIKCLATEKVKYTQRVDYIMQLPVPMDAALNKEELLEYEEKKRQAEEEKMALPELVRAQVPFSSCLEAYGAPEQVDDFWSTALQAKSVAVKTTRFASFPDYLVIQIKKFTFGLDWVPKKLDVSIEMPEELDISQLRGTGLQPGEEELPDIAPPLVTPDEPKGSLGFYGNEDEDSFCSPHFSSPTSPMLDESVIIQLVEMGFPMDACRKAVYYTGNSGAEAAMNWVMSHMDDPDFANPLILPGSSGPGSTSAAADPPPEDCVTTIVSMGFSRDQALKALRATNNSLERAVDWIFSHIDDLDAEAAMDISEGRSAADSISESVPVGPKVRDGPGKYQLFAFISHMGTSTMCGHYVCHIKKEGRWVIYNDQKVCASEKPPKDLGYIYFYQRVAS
Description: (§1) FIG. 6 is a composite figure showing that C527 is a pan-deubiqutinating enzyme inhibitor […]. Ubiquitin-AMC assay was performed using purified (FIG. 6A) USP12/UAF1/WDR20 (FIG. 6B) USP5 and (FIG. 6C) UCH-L1. Enzymes were incubated with DMSO or C527 at indicated concentrations for 3 h, followed by the addition of Ub-AMC at 0.5 μM final concentration. The fluorescence at […] was measured to indicate the enzymatic activity. FIG. 6D is a summary showing the IC50 of C527 against the indicated enzymes.
(§2) The in vitro enzymatic assays were performed using purified proteins from Sf9 cells as described previously (Cohn et al.). The assays using ubiquitin-AMC (Ub-7-amido-4-methylcoumarin; Boston Biochem) as substrate was carried out in a reaction buffer containing 20 mM HEPES-KOH (pH 7.8), 20 mM NaCl, 0.1 mg/ml ovalbumin, 0.5 mM EDTA and 10 mM dithiothreitol. The fluorescence was measured by FluoStar Galaxy Fluorometer (BMG Labtech). For the Ub-vinylsulfone (VS) assay, the proteins were incubated with Ub-VS at 0.5 μM final concentration for 1 h at 30° C., followed by the immunoblotting analysis.
(§3) To examine the specificity of C527 in USP1/UAF1 inhibition, its ability to inhibit other DUB enzymes in vitro was examined. […] Moreover, the active complex of USP12 contains an additional WD40 subunit (WDR20). […]

UCH-L1 = target: T2, UCH-L1 (Homo sapiens, UniProt P09936); assay: ubiquitin-AMC assay with UCH-L1; type: biochemical; conditions: in vitro
T2 sequence (P09936 1-223): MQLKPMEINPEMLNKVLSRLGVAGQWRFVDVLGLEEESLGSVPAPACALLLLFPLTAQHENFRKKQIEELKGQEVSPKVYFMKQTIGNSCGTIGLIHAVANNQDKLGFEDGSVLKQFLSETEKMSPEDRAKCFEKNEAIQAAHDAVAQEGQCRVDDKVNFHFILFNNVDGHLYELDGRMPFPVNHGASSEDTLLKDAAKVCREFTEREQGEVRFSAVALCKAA
Description: as §1, §2, §3

HeLa cells [2] = assay: camptothecin-induced RAD51 and H2AX foci formation, immunofluorescence; type: cell-based, human; conditions: camptothecin for 1 hr after pre-treatment; FIG. 8C
Description: FIG. 8 is a composite figure showing that C527 inhibits homologous recombination repair. […] U2OS-DRGFP cells were transfected with I-SCE-I and then exposed to C527 at the indicated concentration for 24 h. Cells were then subjected to flow cytometry analysis. The percentage of GFP positive cells was normalized by solvent vehicle treated group. […] HeLa cells, integrated with the NHEJ reporter, were treated with C527 and analyzed as described in (FIG. 8A). […] HeLa cells were pre-treated with DMSO or C527 at the indicated concentration and then exposed to camptothecin (CPT) for 1 hr. RAD51 foci were detected using immunofluorescence.
Cells were pre-extracted with extraction buffer (0.25% Triton-X100 in 200 mM HEPES at pH 7.4, 50 mM NaCl, 3 mM MgCl2 and 300 mM sucrose) on ice for 2 min prior to fixation with 4% paraformaldehyde. RAD51 foci were detected using anti-RAD51 antibody (Santa Cruz Biotechnology) and visualized using Alexa Fluor 488-conjugated secondary antibody. The quantification of cells with RAD51 foci was performed by counting the number of cells with RAD51 foci. At least 200 cells were counted from each sample. Data are represented as mean±SD from three independent experiments.
Camptothecin activated the assembly of RAD51 and H2AX foci.

Which results are given for O=C1c2ccccc2C(=O)c2oc(-c3ccc(F)cc3)nc21 [Formula IV (527)]?
sensitization to the cytotoxic effects of MMC (HeLa cells [1]): sensitization of the HeLa cells; IC50 compared with USP1/UAF1 (USP5; FIG. 6D): slightly higher; DUB activity of the USP5 enzyme (USP5; in vitro, FIG. 6B): inhibited; inhibitory effect on UCH-L1 (UCH-L1): considerably less inhibitory effect; H2AX foci formation (HeLa cells [2]): non-detectable effect; RAD51 foci formation (HeLa cells [2]): inhibited RAD51 foci formation
